Assay results from patent US20240023549A1 (published 2024).

Row | SMILES | melting point
1 | CCN(C)/C=N/c1cc(C)c(C(=O)Nc2ccccc2)cc1C | 147 to 149 °C
2 | CCN(C)/C=N/c1cc(C)c(C(=O)n2ccc3cc(C(F)(F)F)ccc32)cc1C | 89 to 92 °C
